{"source": "patent US20090053187A1", "about": "(priority 2005, published 2009)", "key": {"Bacillus anthracis STI-1": {"tested_on": "Bacillus anthracis STI-1", "design": "species or system Mice of CBA line", "settings": "mouse, in vivo"}, "STI-1": {"tested_on": "STI-1", "format": "cell-based"}, "STI-PRTS": {"tested_on": "STI-PRTS", "format": "cell-based"}, "[1]": {"tested_on": "Bacillus anthracis 71/12 (Tsenkovsky vaccine II)", "design": "species or system outbred white mice", "settings": "mouse, in vivo"}}, "note": "Several values for one entry are separate records, joined by “and”; a condition that tells them apart may be missing. Equal values may be shown once.", "data": [{"compound": "C[C@H]1c2cccc(O)c2C(=O)C2=C(O)[C@]3(O)C(=O)C(C(N)=O)=C(O)[C@@H](N(C)C)[C@@H]3[C@@H](O)[C@@H]21", "note": "[doxycycline]", "values": [{"measurement": "Death of animals among those taken for the experiment", "setting": "Bacillus anthracis STI-1", "value": "3/3 and 1/3 and 0/3"}]}, {"compound": "ampicillin", "values": [{"measurement": "Zone of culture growth delay at using discs with antibiotics", "setting": "STI-1", "value": 4, "unit": "mm"}, {"measurement": "Zone of culture growth delay at using discs with antibiotics", "setting": "STI-PRTS", "value": 0, "unit": "mm"}]}, {"compound": "lyzozyme", "values": [{"measurement": "Death of animal on day 2", "setting": "[1]", "value": 1}, {"measurement": "Death of animal on day 3", "setting": "[1]", "value": 3}, {"measurement": "Death of animal on day 6", "setting": "[1]", "value": 0}, {"measurement": "Death of animal on day 7", "setting": "[1]", "value": 0}, {"measurement": "Number of perished/Number of infected", "setting": "[1]", "value": "4/5"}, {"measurement": "mortality", "setting": "[1]", "value": 80, "unit": "%"}]}, {"compound": "tetracycline [Tc]", "values": [{"measurement": "Zone of culture growth delay at using discs with antibiotics", "setting": "STI-1", "value": 7, "unit": "mm"}, {"measurement": "Zone of culture growth delay at using discs with antibiotics", "setting": "STI-PRTS", "value": 0, "unit": "mm"}]}]}
